In US20240254119A1 (THIRD HARMONIC BIO, INC., priority 2022, published 2024):
pIC50: −log10 of the molar value.

Biological target: T1, PDGFRα (Homo sapiens, UniProt P16234)
T1 construct: purchased Millipore 14-467 (lot 26321_ACTI)
Test: HTRF biochemical assay, PDGFRα
Details: Table 4, read-out: PDFGRα Biochemical IC50 avg
Experimental: (§1) Exemplary compounds were tested for ability to inhibit the phosphorylation of a peptide substrate by the tyrosine kinase wt KIT, PDGFRα, or CSF-1R. Assay procedures and results are described below.
(§2) Enzyme, substrate, and cofactors (ATP and Mn^2+) are combined in a well of a microtiter plate and incubated for 3 hours at 25° C. At the end of the incubation, the reaction is quenched by the addition of an EDTA-containing buffer.
(§3) The substrate used in the CSF-1R and PDGFRα assay is FAM-[…]-CONH2 (FAM is carboxyfluorescein). Peptide should be >95% purity. The substrate for the KIT assay is FAM-[…]-NH2.
(§4) • 1. To a well of a 384-wellplate add 5 μL of 2× enzyme buffer (or control). • 2. Add 100 nL of 100× compound. Enzyme and compound may be pre-incubated at this time if desired. • 3. Add 5 μL of 2× substrate buffer. • 4. Incubate plate at 25° C. for 3 hours. • 5. Add 10 uL of anti-phosphotyrosine antibody buffer. • 6. Read plate in BioTek Synergy Reader. Reaction Conditions for wtKIT Assay

T1 sequence (P16234 24-1089): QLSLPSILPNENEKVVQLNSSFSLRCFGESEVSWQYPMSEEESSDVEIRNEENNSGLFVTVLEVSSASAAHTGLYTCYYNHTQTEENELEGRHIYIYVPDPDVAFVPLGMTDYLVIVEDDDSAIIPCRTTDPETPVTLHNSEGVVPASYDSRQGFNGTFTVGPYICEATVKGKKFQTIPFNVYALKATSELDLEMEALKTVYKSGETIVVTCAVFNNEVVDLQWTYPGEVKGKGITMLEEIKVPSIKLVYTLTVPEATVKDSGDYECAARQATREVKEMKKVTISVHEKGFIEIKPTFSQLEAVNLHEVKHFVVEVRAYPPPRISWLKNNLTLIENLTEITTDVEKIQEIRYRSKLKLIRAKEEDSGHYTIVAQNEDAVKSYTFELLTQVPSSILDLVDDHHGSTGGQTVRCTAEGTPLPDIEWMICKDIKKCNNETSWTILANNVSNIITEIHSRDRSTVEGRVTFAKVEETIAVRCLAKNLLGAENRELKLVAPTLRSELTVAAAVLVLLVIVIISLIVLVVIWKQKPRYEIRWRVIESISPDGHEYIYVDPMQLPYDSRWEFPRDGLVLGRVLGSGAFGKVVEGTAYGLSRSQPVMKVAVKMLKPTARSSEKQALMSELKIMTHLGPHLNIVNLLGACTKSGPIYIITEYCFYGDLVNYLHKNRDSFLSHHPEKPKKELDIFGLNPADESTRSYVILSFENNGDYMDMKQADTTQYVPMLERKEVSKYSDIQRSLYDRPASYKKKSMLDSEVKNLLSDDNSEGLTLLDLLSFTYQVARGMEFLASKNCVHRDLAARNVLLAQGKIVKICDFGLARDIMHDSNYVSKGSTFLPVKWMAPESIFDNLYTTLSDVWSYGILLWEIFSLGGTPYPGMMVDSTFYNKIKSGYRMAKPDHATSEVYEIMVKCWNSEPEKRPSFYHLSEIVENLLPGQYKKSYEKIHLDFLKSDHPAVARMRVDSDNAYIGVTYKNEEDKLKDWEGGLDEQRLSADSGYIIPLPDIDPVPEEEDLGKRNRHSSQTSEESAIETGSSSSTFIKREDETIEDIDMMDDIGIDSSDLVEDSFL

Compound	pIC50
Cc1ccc(-c2noc(C3CC3F)n2)cc1NC(=O)c1cnc2cc(COC3CC(O)C3)ccn12 (centres unmarked) [Compound I-85]	5.30 to 6.30
Cc1ccc(-c2noc([C@H]3C[C@@H]3F)n2)cc1NC(=O)c1cnc2ccc(OC(C)C)cn12 [Compound I-86]	6.30 to 7.30
CCOc1ccc2ncc(C(=O)Nc3cc(-c4noc([C@H]5C[C@@H]5F)n4)ccc3C)n2c1 [Compound I-92]	6.30 to 7.30
COc1ccn2c(C(=O)Nc3cc(-c4noc(C[C@@H](C)O)n4)ccc3C)cnc2c1 [Compound I-95]	5.30 to 6.30
Cc1ccc(-c2noc([C@H]3C[C@@H]3F)n2)cc1NC(=O)c1cnn2cc(F)ccc12 [Compound I-101]	4.52 to 5.30
Cc1ccc(-c2noc([C@H]3C[C@@H]3F)n2)cc1NC(=O)c1cnc2ccc(Cl)cn12 [Compound I-102]	5.30 to 6.30
Cc1ccc(-c2noc([C@H]3C[C@@H]3F)n2)cc1NC(=O)c1cnc2cc(F)ccn12 [Compound I-103]	5.30 to 6.30

Biological target: T2, CSF-1R (Homo sapiens, UniProt P07333)
T2 construct: purchased Invitrogen PV3249 (lot 662393N)
T2 sequence (P07333 20-972): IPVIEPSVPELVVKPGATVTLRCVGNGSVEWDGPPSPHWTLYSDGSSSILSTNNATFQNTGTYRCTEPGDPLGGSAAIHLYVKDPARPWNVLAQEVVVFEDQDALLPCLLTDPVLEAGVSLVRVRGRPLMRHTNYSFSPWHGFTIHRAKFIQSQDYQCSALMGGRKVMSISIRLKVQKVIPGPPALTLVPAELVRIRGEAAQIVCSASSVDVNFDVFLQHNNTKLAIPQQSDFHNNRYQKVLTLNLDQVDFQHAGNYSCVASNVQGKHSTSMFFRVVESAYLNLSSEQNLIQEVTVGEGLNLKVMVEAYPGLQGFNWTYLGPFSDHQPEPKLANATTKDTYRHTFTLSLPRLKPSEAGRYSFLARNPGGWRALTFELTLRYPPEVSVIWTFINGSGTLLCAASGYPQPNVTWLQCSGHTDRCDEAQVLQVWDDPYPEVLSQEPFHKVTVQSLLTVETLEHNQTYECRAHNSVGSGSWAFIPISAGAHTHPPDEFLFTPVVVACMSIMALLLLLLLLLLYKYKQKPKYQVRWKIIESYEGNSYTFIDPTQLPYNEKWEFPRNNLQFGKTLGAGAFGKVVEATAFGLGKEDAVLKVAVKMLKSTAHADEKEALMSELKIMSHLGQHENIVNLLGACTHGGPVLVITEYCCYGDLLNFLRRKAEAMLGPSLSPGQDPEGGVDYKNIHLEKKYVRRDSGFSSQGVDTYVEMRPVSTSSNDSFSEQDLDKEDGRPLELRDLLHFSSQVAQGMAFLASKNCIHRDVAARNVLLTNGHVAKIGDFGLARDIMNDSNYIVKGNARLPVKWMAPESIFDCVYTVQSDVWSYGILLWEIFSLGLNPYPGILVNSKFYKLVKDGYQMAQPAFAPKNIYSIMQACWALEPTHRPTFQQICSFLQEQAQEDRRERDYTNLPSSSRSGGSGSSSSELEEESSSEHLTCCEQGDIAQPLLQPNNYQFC
Test: HTRF biochemical assay, CSF-1R
Details: Table 4
Experimental: as §1, §2, §3, §4

Compound	pIC50
Cc1ccc(-c2noc(C3CC3F)n2)cc1NC(=O)c1cnc2cc(COC3CC(O)C3)ccn12 (centres unmarked) [Compound I-85]	≥ 7.30
Cc1ccc(-c2noc([C@H]3C[C@@H]3F)n2)cc1NC(=O)c1cnc2ccc(OC(C)C)cn12 [Compound I-86]	≥ 7.30
CCOc1ccc2ncc(C(=O)Nc3cc(-c4noc([C@H]5C[C@@H]5F)n4)ccc3C)n2c1 [Compound I-92]	≥ 7.30
COc1ccn2c(C(=O)Nc3cc(-c4noc(C[C@@H](C)O)n4)ccc3C)cnc2c1 [Compound I-95]	6.30 to 7.30
Cc1ccc(-c2noc([C@H]3C[C@@H]3F)n2)cc1NC(=O)c1cnn2cc(F)ccc12 [Compound I-101]	6.30 to 7.30
Cc1ccc(-c2noc([C@H]3C[C@@H]3F)n2)cc1NC(=O)c1cnc2ccc(Cl)cn12 [Compound I-102]	≥ 7.30
Cc1ccc(-c2noc([C@H]3C[C@@H]3F)n2)cc1NC(=O)c1cnc2cc(F)ccn12 [Compound I-103]	≥ 7.30

Test system: KIT phosphorylation in M-07e cells
Test: Cell-based KIT phosphorylation in M-07e cells by pKIT ELISA
Parameters: species or system human
Details: SCF stimulation
Experimental: Exemplary compounds were tested for ability to inhibit KIT phosphorylation using M-07e cells as monitored by pKIT ELISA. M-07e cells are also represented as M-07E, M-07e, M07-e, M07e, Mo7e, MO7e, M07E and MO7E. Assay procedures and results are described below.
Part I—Procedures for Determining KIT Inhibition inM-07e Cells Using pKTT ELISA Reagents and consumables: • M-07e cells: Initially obtained from Accegen, cat #ABC-TC1313 • p-cKIT Capture ELISA antibody: anti-Human Phospho-CD117/c-kit, R&D cat #DYC3527-5 • Anti-pY-HIRP antibody: R&D cat #DYC3527-5 • 25× wash buffer: Quantikine ELISA Wash Buffer 1, R&D cat #WA126 • PBS: R&D cat #DY006 • 96 well ELISA plates: Clear Polystyrene Microplates, R&D Cat #DY990 • 96 well Tissue culture plates: Corning® 96 Well TC-Treated Microplates, cat #CLS3894 • RPMI medium: ATCC® RPMI-1640 Medium, Cat #30-2001 • FBS: Fetal Bovine Serum, certified, United States Gibco, Thermo-Fisher 16000044 • GM-CSF: Recombinant Human GM-CSF Protein, R&D cat #215-GM • SCF: Recombinant Human SCF Protein, R&D cat #255-SC
• 1. Prepare cells: • a. Culture M-07e cells in RPMI medium+20% serum+GM-CSF+penstrep • To make 50 mL of growth medium • i. 40 mL RPMI media • ii. 10 mL FBS • iii. 10 uL of GM-CSF (100 ug/mL stock) • iv. 0.5 mL pen strep (100×) • b. Harvest cells • c. Re-suspend cells in 100% RPMI media (without serum) to final concentration of 1 million cells/mL • d. Transfer 100 uL of cell solution to 11 columns of a 96 well flat bottom cell culture plate • e. Incubate cells over night at 37 C • 2. Prepare ELISA Plates: • a. Dilute capture antibody to concentration 4 ug/mL in PBS • b. Coat 96 well microplates with 100 uL of capture antibody • c. Seal plates and incubate at RT overnight • d. Wash plates with 300 uL of wash buffer • e. Repeat wash • f. Treat plates with 300 uL of blocking buffer at RT for 1 hour • 3. Addition of compounds: • a. Prepare compound dilutions in RPMI media • i. Top test concentration is 1 uM • ii. Serially dilute compounds 3× for a total of 8 concentrations • b. Add 10 uL of 10× compound dilutions to cells • i. No compounds added in column 11 (for controls) • c. Incubate cells with compounds for 2 hours at 37 C • d. Stimulate cells with SCF for 5 min at concentration of 100 ng/mL (final) • i. In column 11 stimulate top 4 wells. Leave bottom 4 wells unstimulated • e. Remove cell culture media with multichannel pipet • f. Add 110 uL of Lysis buffer to all wells • g. Incubate plates at RT for 30 min while shaking • 4. Transfer 100 uL of cell lysis to each prepared Elisa plate • 5. Add 100 uL of the standard pc-KIT dilutions to the standard wells in column 12 • a. Top concentration=2000 pg/mL • b. 2× dilutions • 6. Incubate ELISA plate with cell lysate for 2 hours at RT • 7. Wash Plate with wash buffer (wash 1) • 8. Repeat wash (wash 2) • 9. […] Add 100 uL of diluted anti-pY-HRP (1/1000 dilution in detection antibody dilution buffer) and incubate 2 hours at RT • 11. Wash plate with wash buffer (wash 1) • 12. Repeat wash (wash 2) • 13. Repeat wash (wash 3) • 14. Add 100 uL of substrate solution to each well • 15. Incubate plates 20 min • Note: Plate development is indicated by aqua color • 16. Add 50 uL of stop solution to each well • 17. Determine optical density on Bitek Synergy Neo2: • a. Make new experiment
Select absorbance 1 set to 450 nm

Compound	pIC50
Cc1ccc(-c2noc(C3CC3F)n2)cc1NC(=O)c1cnc2cc(COC3CC(O)C3)ccn12 (centres unmarked) [Compound I-85]	≥ 7.30
Cc1ccc(-c2noc([C@H]3C[C@@H]3F)n2)cc1NC(=O)c1cnc2ccc(OC(C)C)cn12 [Compound I-86]	≥ 7.30
CCOc1ccc2ncc(C(=O)Nc3cc(-c4noc([C@H]5C[C@@H]5F)n4)ccc3C)n2c1 [Compound I-92]	≥ 7.30
COc1ccn2c(C(=O)Nc3cc(-c4noc(C[C@@H](C)O)n4)ccc3C)cnc2c1 [Compound I-95]	≥ 7.30
Cc1ccc(-c2noc([C@H]3C[C@@H]3F)n2)cc1NC(=O)c1cnn2cc(F)ccc12 [Compound I-101]	6.30 to 7.30
Cc1ccc(-c2noc([C@H]3C[C@@H]3F)n2)cc1NC(=O)c1cnc2ccc(Cl)cn12 [Compound I-102]	≥ 7.30
Cc1ccc(-c2noc([C@H]3C[C@@H]3F)n2)cc1NC(=O)c1cnc2cc(F)ccn12 [Compound I-103]	6.30 to 7.30

Biological target: T3, wtKIT (Homo sapiens, UniProt P10721)
T3 construct: 1888289AM in the reaction mixtures
T3 sequence (P10721 26-976): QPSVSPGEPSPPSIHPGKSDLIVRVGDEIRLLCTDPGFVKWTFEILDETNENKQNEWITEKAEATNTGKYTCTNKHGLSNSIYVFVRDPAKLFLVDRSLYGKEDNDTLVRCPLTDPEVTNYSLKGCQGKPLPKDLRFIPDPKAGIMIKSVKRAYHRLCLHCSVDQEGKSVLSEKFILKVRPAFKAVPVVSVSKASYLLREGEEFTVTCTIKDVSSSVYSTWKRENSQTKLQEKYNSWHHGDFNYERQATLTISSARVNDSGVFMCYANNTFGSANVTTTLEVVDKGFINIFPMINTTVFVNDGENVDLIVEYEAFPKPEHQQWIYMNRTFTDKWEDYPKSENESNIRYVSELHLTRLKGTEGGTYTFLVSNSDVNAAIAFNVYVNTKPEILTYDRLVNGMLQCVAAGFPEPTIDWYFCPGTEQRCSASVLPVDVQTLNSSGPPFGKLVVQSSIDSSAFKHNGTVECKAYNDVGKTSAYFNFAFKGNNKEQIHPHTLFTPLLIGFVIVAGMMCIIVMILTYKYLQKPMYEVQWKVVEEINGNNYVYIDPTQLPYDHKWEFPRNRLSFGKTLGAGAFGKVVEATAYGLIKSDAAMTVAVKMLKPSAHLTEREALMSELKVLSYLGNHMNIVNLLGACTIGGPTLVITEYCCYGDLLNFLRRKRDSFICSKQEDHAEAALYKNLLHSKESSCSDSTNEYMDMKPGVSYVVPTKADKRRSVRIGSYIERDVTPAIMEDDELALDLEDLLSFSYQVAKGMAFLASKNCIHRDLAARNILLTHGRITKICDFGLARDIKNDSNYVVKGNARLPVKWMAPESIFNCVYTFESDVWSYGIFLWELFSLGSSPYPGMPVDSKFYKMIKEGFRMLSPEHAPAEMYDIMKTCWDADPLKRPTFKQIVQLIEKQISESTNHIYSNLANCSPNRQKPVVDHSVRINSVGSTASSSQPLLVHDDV
Test: HTRF biochemical assay, wtKIT (phosphorylation of a peptide substrate)
Details: Table 4
In short: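 HTRF read-out of FAM-peptide (1 µM) phosphorylation after anti-phosphotyrosine antibody addition and EDTA quench. Reaction: 5.0 nM wtKIT, 400 µM ATP, 10 mM Mn2+, HEPES pH 7.5, 1% DMSO, 3 h, 25 °C; optional enzyme-compound preincubation; enzyme level set for 10-20% conversion.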

Compound	pIC50
Cc1ccc(-c2noc(C3CC3F)n2)cc1NC(=O)c1cnc2cc(COC3CC(O)C3)ccn12 (centres unmarked) [Compound I-85]	≥ 7.30
Cc1ccc(-c2noc([C@H]3C[C@@H]3F)n2)cc1NC(=O)c1cnc2ccc(OC(C)C)cn12 [Compound I-86]	≥ 7.30
CCOc1ccc2ncc(C(=O)Nc3cc(-c4noc([C@H]5C[C@@H]5F)n4)ccc3C)n2c1 [Compound I-92]	≥ 7.30
COc1ccn2c(C(=O)Nc3cc(-c4noc(C[C@@H](C)O)n4)ccc3C)cnc2c1 [Compound I-95]	≥ 7.30
Cc1ccc(-c2noc([C@H]3C[C@@H]3F)n2)cc1NC(=O)c1cnn2cc(F)ccc12 [Compound I-101]	≥ 7.30
Cc1ccc(-c2noc([C@H]3C[C@@H]3F)n2)cc1NC(=O)c1cnc2ccc(Cl)cn12 [Compound I-102]	≥ 7.30
Cc1ccc(-c2noc([C@H]3C[C@@H]3F)n2)cc1NC(=O)c1cnc2cc(F)ccn12 [Compound I-103]	≥ 7.30

Test system: not listed separately
Test: Kinetic solubility assay
Format: physicochemical
Details: kinetic solubility, 50 mM PB (pH 7.4), shaken 24 hours at RT
In short: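 Concentration in the filtrate was determined by UPLC-UV or HPLC-UV with a standard curve. Before that, compound (10 mM DMSO stock) in 50 mM PB at pH 7.4 was agitated 24 h at room temperature, then PTFE-filtered with centrifugation.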

Compound	Solubility (μM)
Cc1ccc(-c2noc(C3CC3F)n2)cc1NC(=O)c1cnc2cc(COC3CC(O)C3)ccn12 (centres unmarked) [Compound I-85]	**** (a solubility less than or equal to 2 μM)
Cc1ccc(-c2noc([C@H]3C[C@@H]3F)n2)cc1NC(=O)c1cnc2ccc(OC(C)C)cn12 [Compound I-86]	**** (a solubility less than or equal to 2 μM)
CCOc1ccc2ncc(C(=O)Nc3cc(-c4noc([C@H]5C[C@@H]5F)n4)ccc3C)n2c1 [Compound I-92]	**** (a solubility less than or equal to 2 μM)
COc1ccn2c(C(=O)Nc3cc(-c4noc(C[C@@H](C)O)n4)ccc3C)cnc2c1 [Compound I-95]	**** (a solubility less than or equal to 2 μM)
Cc1ccc(-c2noc([C@H]3C[C@@H]3F)n2)cc1NC(=O)c1cnn2cc(F)ccc12 [Compound I-101]	**** (a solubility less than or equal to 2 μM)
Cc1ccc(-c2noc([C@H]3C[C@@H]3F)n2)cc1NC(=O)c1cnc2ccc(Cl)cn12 [Compound I-102]	**** (a solubility less than or equal to 2 μM)
Cc1ccc(-c2noc([C@H]3C[C@@H]3F)n2)cc1NC(=O)c1cnc2cc(F)ccn12 [Compound I-103]	**** (a solubility less than or equal to 2 μM)
